Laboratory results reported in the kinase profiling compilation of Christmann-Franck et al. (2016).

How the values were obtained:
Assay in all cases: KINOMEscan competition binding
Conditions in all cases: compound 10.0 µM
RPS6KA2 KD2 (human) = RPS6KA2 KD2 (human) (UniProt Q15349)
MAP2K2 (human) = MAP2K2 (human) (UniProt P36507)
TEK (human) = TEK (human) (UniProt Q02763)
MAP3K3 (human) = MAP3K3 (human) (UniProt Q99759)
CDK9 (human) = CDK9 (human) (UniProt P50750)
RIPK2 (human) = RIPK2 (human) (UniProt O43353)
PDGFRB (human) = PDGFRB (human) (UniProt P09619)
MYO3A (human) = MYO3A (human) (UniProt Q8NEV4)
PRKD1 (human) = PRKD1 (human) (UniProt Q15139)
MAPK12 (human) = MAPK12 (human) (UniProt P53778)
MAP4K5 (human) = MAP4K5 (human) (UniProt Q9Y4K4)
MAPK3 (human) = MAPK3 (human) (UniProt P27361)
CDK14 (human) = CDK14 (human) (UniProt O94921)
CDK5 (human) = CDK5 (human) (UniProt Q00535)
RPS6KA1 KD2 (human) = RPS6KA1 KD2 (human) (UniProt Q15418)
PAK3 (human) = PAK3 (human) (UniProt O75914)
PLK4 (human) = PLK4 (human) (UniProt O00444)
LCK (human) = LCK (human) (UniProt P06239)
AXL (human) = AXL (human) (UniProt P30530)
SRMS (human) = SRMS (human) (UniProt Q9H3Y6)
STK25 (human) = STK25 (human) (UniProt O00506)
LYN (human) = LYN (human) (UniProt P07948)
NEK5 (human) = NEK5 (human) (UniProt Q6P3R8)
[1] = target: JAK1 JH1 catalytic (human) (UniProt P23458)
CLK2 (human) = CLK2 (human) (UniProt P49760)
PDPK1 (human) = PDPK1 (human) (UniProt O15530)
EPHA2 (human) = EPHA2 (human) (UniProt P29317)
TNIK (human) = TNIK (human) (UniProt Q9UKE5)
SLK (human) = SLK (human) (UniProt Q9H2G2)
MAPKAPK5 (human) = MAPKAPK5 (human) (UniProt Q8IW41)
NUAK2 (human) = NUAK2 (human) (UniProt Q9H093)
IKBKE (human) = IKBKE (human) (UniProt Q14164)
PIM2 (human) = PIM2 (human) (UniProt Q9P1W9)
EPHA8 (human) = EPHA8 (human) (UniProt P29322)
RIPK1 (human) = RIPK1 (human) (UniProt Q13546)
BRSK2 (human) = BRSK2 (human) (UniProt Q8IWQ3)
MARK2 (human) = MARK2 (human) (UniProt Q7KZI7)
IKBKB (human) = IKBKB (human) (UniProt O14920)
TNNI3K (human) = TNNI3K (human) (UniProt Q59H18)
CSNK1E (human) = CSNK1E (human) (UniProt P49674)

Chain of LYN (human) (P07948 whole entry, looked up): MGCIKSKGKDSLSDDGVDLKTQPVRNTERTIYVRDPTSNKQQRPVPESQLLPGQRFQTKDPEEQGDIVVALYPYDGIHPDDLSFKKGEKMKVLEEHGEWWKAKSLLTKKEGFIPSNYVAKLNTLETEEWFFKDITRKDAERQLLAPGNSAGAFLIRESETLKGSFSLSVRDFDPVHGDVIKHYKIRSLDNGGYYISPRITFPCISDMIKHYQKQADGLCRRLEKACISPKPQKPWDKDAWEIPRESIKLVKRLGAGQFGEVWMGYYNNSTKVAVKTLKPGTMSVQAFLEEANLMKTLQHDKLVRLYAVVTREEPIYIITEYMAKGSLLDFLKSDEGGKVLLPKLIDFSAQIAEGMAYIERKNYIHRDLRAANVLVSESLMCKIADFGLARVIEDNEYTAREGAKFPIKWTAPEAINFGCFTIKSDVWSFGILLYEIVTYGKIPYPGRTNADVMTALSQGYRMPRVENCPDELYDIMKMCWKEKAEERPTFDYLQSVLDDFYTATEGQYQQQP
Chain of LCK (human) (P06239 whole entry, looked up): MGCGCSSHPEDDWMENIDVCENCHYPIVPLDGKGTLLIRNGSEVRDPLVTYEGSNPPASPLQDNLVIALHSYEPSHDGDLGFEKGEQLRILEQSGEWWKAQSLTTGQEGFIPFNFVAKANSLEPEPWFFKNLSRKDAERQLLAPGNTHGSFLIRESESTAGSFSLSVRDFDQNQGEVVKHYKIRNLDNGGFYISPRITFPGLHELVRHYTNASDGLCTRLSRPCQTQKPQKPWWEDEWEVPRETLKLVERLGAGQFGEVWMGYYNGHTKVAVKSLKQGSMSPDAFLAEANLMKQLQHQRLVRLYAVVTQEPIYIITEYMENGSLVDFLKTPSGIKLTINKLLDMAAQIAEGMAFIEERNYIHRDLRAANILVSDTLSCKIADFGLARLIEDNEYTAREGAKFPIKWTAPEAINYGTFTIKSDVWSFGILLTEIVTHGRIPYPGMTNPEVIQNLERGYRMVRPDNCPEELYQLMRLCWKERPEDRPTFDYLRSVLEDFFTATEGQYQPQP
Chain of SRMS (human) (Q9H3Y6 whole entry, looked up): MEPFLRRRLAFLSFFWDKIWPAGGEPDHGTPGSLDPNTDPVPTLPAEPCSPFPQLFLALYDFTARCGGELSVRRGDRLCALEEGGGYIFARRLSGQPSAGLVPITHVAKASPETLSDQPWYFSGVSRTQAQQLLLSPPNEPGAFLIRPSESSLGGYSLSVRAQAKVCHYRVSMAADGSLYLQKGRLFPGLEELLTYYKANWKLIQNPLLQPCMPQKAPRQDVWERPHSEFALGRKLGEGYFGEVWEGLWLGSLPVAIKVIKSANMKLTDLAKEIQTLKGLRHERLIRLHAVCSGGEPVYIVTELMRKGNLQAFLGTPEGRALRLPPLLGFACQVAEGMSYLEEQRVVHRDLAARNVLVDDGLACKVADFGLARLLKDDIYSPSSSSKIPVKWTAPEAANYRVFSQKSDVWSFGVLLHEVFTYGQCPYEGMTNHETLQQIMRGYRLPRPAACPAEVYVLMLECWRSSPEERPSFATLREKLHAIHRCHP
Chain of NEK5 (human) (Q6P3R8 whole entry, looked up): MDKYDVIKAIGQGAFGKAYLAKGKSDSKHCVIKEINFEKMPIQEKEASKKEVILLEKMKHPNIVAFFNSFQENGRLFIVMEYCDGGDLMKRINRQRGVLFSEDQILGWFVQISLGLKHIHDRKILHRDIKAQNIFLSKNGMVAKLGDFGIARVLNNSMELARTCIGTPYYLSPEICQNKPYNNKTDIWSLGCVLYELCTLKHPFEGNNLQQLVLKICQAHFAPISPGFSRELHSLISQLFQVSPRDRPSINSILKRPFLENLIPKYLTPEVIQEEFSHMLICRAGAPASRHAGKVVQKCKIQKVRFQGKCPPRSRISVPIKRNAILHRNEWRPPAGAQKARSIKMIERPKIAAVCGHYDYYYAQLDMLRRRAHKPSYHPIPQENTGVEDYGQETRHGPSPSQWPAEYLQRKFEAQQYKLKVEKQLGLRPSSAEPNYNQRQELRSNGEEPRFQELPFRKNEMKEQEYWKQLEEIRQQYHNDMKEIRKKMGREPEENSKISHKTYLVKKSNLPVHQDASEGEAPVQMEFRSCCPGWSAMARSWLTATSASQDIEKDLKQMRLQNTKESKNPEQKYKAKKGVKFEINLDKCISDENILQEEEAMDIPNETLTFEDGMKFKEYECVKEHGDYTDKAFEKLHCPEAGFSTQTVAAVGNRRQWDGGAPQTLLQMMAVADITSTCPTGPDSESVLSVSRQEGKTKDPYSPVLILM
Chain of MYO3A (human) (Q8NEV4 whole entry, looked up): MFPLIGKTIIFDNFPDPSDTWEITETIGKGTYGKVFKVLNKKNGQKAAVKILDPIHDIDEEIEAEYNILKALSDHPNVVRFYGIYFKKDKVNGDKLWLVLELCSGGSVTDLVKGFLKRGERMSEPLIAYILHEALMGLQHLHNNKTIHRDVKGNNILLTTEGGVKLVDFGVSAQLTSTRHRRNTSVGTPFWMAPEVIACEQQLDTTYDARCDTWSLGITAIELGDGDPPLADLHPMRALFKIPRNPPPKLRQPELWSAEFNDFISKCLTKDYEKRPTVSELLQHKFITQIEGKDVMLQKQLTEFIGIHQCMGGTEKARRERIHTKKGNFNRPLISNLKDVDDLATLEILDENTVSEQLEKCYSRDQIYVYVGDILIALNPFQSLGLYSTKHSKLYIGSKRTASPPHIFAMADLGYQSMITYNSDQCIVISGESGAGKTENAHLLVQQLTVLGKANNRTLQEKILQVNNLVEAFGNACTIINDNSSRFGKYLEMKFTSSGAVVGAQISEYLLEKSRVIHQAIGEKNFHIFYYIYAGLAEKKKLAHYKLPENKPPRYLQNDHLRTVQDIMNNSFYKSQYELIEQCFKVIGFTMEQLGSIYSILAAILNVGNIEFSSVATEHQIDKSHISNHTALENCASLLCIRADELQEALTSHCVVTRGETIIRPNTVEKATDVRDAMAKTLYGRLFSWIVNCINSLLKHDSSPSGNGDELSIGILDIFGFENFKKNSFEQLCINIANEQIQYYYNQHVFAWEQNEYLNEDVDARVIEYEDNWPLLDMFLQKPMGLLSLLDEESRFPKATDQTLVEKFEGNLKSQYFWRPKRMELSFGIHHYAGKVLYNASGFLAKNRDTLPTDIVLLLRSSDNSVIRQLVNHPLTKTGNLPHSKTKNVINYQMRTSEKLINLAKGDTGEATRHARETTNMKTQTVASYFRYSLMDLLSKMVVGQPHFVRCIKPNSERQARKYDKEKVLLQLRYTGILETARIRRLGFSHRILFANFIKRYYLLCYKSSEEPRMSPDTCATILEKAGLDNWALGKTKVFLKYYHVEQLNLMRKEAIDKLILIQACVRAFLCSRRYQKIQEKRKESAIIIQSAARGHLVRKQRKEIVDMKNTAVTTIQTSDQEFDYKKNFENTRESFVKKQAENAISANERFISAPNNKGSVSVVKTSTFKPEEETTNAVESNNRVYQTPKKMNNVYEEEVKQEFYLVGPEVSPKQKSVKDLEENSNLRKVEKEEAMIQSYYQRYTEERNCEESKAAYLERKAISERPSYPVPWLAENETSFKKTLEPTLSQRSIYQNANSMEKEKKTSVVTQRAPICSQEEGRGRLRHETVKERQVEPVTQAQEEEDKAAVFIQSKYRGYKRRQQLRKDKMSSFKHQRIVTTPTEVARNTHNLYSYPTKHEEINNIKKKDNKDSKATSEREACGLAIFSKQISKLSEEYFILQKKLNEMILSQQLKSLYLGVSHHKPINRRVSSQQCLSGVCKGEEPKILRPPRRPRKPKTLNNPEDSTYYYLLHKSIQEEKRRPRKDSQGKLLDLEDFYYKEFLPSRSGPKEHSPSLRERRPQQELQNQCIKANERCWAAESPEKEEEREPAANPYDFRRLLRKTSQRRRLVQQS
Chain of MAP4K5 (human) (Q9Y4K4 whole entry, looked up): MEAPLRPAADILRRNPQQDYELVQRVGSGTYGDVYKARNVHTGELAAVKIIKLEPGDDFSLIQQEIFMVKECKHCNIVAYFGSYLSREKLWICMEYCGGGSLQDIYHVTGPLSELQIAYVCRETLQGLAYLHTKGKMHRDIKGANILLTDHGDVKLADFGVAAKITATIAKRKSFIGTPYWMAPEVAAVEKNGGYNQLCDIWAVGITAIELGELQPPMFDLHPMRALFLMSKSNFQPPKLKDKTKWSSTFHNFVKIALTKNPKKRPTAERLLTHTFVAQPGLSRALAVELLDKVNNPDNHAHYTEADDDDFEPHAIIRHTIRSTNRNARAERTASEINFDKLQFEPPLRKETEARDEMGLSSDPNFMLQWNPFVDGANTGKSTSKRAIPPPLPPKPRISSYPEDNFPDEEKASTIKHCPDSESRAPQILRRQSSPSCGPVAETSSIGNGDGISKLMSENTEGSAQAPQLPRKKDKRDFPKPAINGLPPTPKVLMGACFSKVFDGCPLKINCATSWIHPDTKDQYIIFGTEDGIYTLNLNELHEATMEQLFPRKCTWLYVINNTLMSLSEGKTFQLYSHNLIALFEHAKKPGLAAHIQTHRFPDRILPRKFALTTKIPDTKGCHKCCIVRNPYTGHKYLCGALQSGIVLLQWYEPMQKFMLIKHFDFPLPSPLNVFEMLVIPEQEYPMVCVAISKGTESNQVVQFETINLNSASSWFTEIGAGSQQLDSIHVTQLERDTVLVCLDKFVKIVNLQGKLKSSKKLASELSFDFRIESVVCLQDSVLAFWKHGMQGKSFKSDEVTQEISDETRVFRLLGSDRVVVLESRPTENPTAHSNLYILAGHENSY
Chain of CDK5 (human) (Q00535 whole entry, looked up): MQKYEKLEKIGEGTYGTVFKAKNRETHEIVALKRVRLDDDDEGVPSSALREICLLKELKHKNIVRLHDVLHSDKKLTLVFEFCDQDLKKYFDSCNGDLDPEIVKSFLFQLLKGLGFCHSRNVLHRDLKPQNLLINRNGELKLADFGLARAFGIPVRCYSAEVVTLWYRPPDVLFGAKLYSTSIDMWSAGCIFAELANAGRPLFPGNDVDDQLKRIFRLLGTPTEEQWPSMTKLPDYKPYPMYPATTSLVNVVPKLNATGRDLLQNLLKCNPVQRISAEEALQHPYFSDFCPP

## Nc1ccc(-c2ccc3ncc4ccc(=O)n(-c5cccc(C(F)(F)F)c5)c4c3c2)cn1
RPS6KA2 KD2 (human)
  kinase still bound, per cent of control: 86%
MAP2K2 (human)
  kinase still bound, per cent of control: 100%
TEK (human)
  kinase still bound, per cent of control: 100%
MAP3K3 (human)
  kinase still bound, per cent of control: 84%
CDK9 (human)
  kinase still bound, per cent of control: 93%
RIPK2 (human)
  kinase still bound, per cent of control: 54%
PDGFRB (human)
  kinase still bound, per cent of control: 34%
MYO3A (human)
  kinase still bound, per cent of control: 100%
PRKD1 (human)
  kinase still bound, per cent of control: 87%
MAPK12 (human)
  kinase still bound, per cent of control: 87%
MAP4K5 (human)
  kinase still bound, per cent of control: 100%
MAPK3 (human)
  kinase still bound, per cent of control: 100%
CDK14 (human)
  kinase still bound, per cent of control: 97%
CDK5 (human)
  kinase still bound, per cent of control: 92%
RPS6KA1 KD2 (human)
  kinase still bound, per cent of control: 100%
PAK3 (human)
  kinase still bound, per cent of control: 100%
PLK4 (human)
  kinase still bound, per cent of control: 100%
LCK (human)
  kinase still bound, per cent of control: 100%
AXL (human)
  kinase still bound, per cent of control: 74%
SRMS (human)
  kinase still bound, per cent of control: 88%
STK25 (human)
  kinase still bound, per cent of control: 56%
LYN (human)
  kinase still bound, per cent of control: 100%
NEK5 (human)
  kinase still bound, per cent of control: 94%
[1]
  kinase still bound, per cent of control: 92%
CLK2 (human)
  kinase still bound, per cent of control: 15%
PDPK1 (human)
  kinase still bound, per cent of control: 100%
EPHA2 (human)
  kinase still bound, per cent of control: 99%
TNIK (human)
  kinase still bound, per cent of control: 68%
SLK (human)
  kinase still bound, per cent of control: 100%
MAPKAPK5 (human)
  kinase still bound, per cent of control: 100%
NUAK2 (human)
  kinase still bound, per cent of control: 46%
IKBKE (human)
  kinase still bound, per cent of control: 89%
PIM2 (human)
  kinase still bound, per cent of control: 100%
EPHA8 (human)
  kinase still bound, per cent of control: 99%
RIPK1 (human)
  kinase still bound, per cent of control: 100%
BRSK2 (human)
  kinase still bound, per cent of control: 100%
MARK2 (human)
  kinase still bound, per cent of control: 100%
IKBKB (human)
  kinase still bound, per cent of control: 89%
TNNI3K (human)
  kinase still bound, per cent of control: 100%

## COc1cc(N2CCN(C)CC2)ccc1Nc1nc(N)c(C(=O)c2c(Cl)cccc2Cl)s1
RPS6KA2 KD2 (human)
  kinase still bound, per cent of control: 2.9%
MAP2K2 (human)
  kinase still bound, per cent of control: 93%
TEK (human)
  kinase still bound, per cent of control: 88%
MAP3K3 (human)
  kinase still bound, per cent of control: 76%
RIPK2 (human)
  kinase still bound, per cent of control: 70%
PDGFRB (human)
  kinase still bound, per cent of control: 100%
MYO3A (human)
  kinase still bound, per cent of control: 85%
PRKD1 (human)
  kinase still bound, per cent of control: 44%
MAPK12 (human)
  kinase still bound, per cent of control: 100%
MAP4K5 (human)
  kinase still bound, per cent of control: 78%
MAPK3 (human)
  kinase still bound, per cent of control: 100%
CDK14 (human)
  kinase still bound, per cent of control: 91%
CDK5 (human)
  kinase still bound, per cent of control: 88%
RPS6KA1 KD2 (human)
  kinase still bound, per cent of control: 58%
PAK3 (human)
  kinase still bound, per cent of control: 94%
PLK4 (human)
  kinase still bound, per cent of control: 100%
LCK (human)
  kinase still bound, per cent of control: 86%
AXL (human)
  kinase still bound, per cent of control: 100%
SRMS (human)
  kinase still bound, per cent of control: 71%
STK25 (human)
  kinase still bound, per cent of control: 66%
LYN (human)
  kinase still bound, per cent of control: 100%
NEK5 (human)
  kinase still bound, per cent of control: 96%
[1]
  kinase still bound, per cent of control: 100%
CLK2 (human)
  kinase still bound, per cent of control: 13%
PDPK1 (human)
  kinase still bound, per cent of control: 100%
TNIK (human)
  kinase still bound, per cent of control: 69%
SLK (human)
  kinase still bound, per cent of control: 1.6%
MAPKAPK5 (human)
  kinase still bound, per cent of control: 100%
NUAK2 (human)
  kinase still bound, per cent of control: 60%
IKBKE (human)
  kinase still bound, per cent of control: 87%
PIM2 (human)
  kinase still bound, per cent of control: 100%
EPHA8 (human)
  kinase still bound, per cent of control: 73%
RIPK1 (human)
  kinase still bound, per cent of control: 100%
BRSK2 (human)
  kinase still bound, per cent of control: 87%
MARK2 (human)
  kinase still bound, per cent of control: 90%
IKBKB (human)
  kinase still bound, per cent of control: 96%
CSNK1E (human)
  kinase still bound, per cent of control: 56%
TNNI3K (human)
  kinase still bound, per cent of control: 82%

## CCCS(=O)(=O)Nc1ccc(F)c(C(=O)c2c[nH]c3ncc(-c4ccc(Cl)cc4)cc23)c1F
RPS6KA2 KD2 (human)
  kinase still bound, per cent of control: 81%
MAP2K2 (human)
  kinase still bound, per cent of control: 5.4%
TEK (human)
  kinase still bound, per cent of control: 62%
MAP3K3 (human)
  kinase still bound, per cent of control: 82%
CDK9 (human)
  kinase still bound, per cent of control: 100%
RIPK2 (human)
  kinase still bound, per cent of control: 4.3%
PDGFRB (human)
  kinase still bound, per cent of control: 0.15%
MYO3A (human)
  kinase still bound, per cent of control: 57%
PRKD1 (human)
  kinase still bound, per cent of control: 8.2%
MAPK12 (human)
  kinase still bound, per cent of control: 93%
MAP4K5 (human)
  kinase still bound, per cent of control: 6.4%
MAPK3 (human)
  kinase still bound, per cent of control: 100%
CDK14 (human)
  kinase still bound, per cent of control: 100%
CDK5 (human)
  kinase still bound, per cent of control: 96%
RPS6KA1 KD2 (human)
  kinase still bound, per cent of control: 59%
PAK3 (human)
  kinase still bound, per cent of control: 69%
PLK4 (human)
  kinase still bound, per cent of control: 48%
LCK (human)
  kinase still bound, per cent of control: 1.6%
AXL (human)
  kinase still bound, per cent of control: 8.4%
SRMS (human)
  kinase still bound, per cent of control: 0.05%
STK25 (human)
  kinase still bound, per cent of control: 100%
LYN (human)
  kinase still bound, per cent of control: 16%
NEK5 (human)
  kinase still bound, per cent of control: 100%
[1]
  kinase still bound, per cent of control: 28%
CLK2 (human)
  kinase still bound, per cent of control: 46%
PDPK1 (human)
  kinase still bound, per cent of control: 70%
EPHA2 (human)
  kinase still bound, per cent of control: 99%
TNIK (human)
  kinase still bound, per cent of control: 15%
SLK (human)
  kinase still bound, per cent of control: 1.4%
MAPKAPK5 (human)
  kinase still bound, per cent of control: 100%
NUAK2 (human)
  kinase still bound, per cent of control: 98%
IKBKE (human)
  kinase still bound, per cent of control: 100%
PIM2 (human)
  kinase still bound, per cent of control: 96%
EPHA8 (human)
  kinase still bound, per cent of control: 83%
RIPK1 (human)
  kinase still bound, per cent of control: 63%
BRSK2 (human)
  kinase still bound, per cent of control: 100%
MARK2 (human)
  kinase still bound, per cent of control: 69%
IKBKB (human)
  kinase still bound, per cent of control: 100%
TNNI3K (human)
  kinase still bound, per cent of control: 65%

## O=C(O)c1ccc(Nc2ncc3c(n2)-c2ccc(Cl)cc2C(c2c(F)cccc2F)=NC3)cc1
RPS6KA2 KD2 (human)
  kinase still bound, per cent of control: 64%
MAP2K2 (human)
  kinase still bound, per cent of control: 99%
TEK (human)
  kinase still bound, per cent of control: 3%
MAP3K3 (human)
  kinase still bound, per cent of control: 72%
RIPK2 (human)
  kinase still bound, per cent of control: 97%
PDGFRB (human)
  kinase still bound, per cent of control: 34%
MYO3A (human)
  kinase still bound, per cent of control: 80%
PRKD1 (human)
  kinase still bound, per cent of control: 92%
MAPK12 (human)
  kinase still bound, per cent of control: 97%
MAP4K5 (human)
  kinase still bound, per cent of control: 96%
CDK14 (human)
  kinase still bound, per cent of control: 100%
CDK5 (human)
  kinase still bound, per cent of control: 100%
PAK3 (human)
  kinase still bound, per cent of control: 52%
PLK4 (human)
  kinase still bound, per cent of control: 14%
LCK (human)
  kinase still bound, per cent of control: 1.6%
AXL (human)
  kinase still bound, per cent of control: 4.4%
SRMS (human)
  kinase still bound, per cent of control: 54%
STK25 (human)
  kinase still bound, per cent of control: 56%
LYN (human)
  kinase still bound, per cent of control: 25%
NEK5 (human)
  kinase still bound, per cent of control: 46%
[1]
  kinase still bound, per cent of control: 90%
CLK2 (human)
  kinase still bound, per cent of control: 7.4%
PDPK1 (human)
  kinase still bound, per cent of control: 35%
TNIK (human)
  kinase still bound, per cent of control: 61%
SLK (human)
  kinase still bound, per cent of control: 80%
MAPKAPK5 (human)
  kinase still bound, per cent of control: 100%
NUAK2 (human)
  kinase still bound, per cent of control: 85%
IKBKE (human)
  kinase still bound, per cent of control: 68%
PIM2 (human)
  kinase still bound, per cent of control: 36%
EPHA8 (human)
  kinase still bound, per cent of control: 99%
RIPK1 (human)
  kinase still bound, per cent of control: 100%
BRSK2 (human)
  kinase still bound, per cent of control: 100%
MARK2 (human)
  kinase still bound, per cent of control: 93%
IKBKB (human)
  kinase still bound, per cent of control: 100%
CSNK1E (human)
  kinase still bound, per cent of control: 100%
TNNI3K (human)
  kinase still bound, per cent of control: 85%
